Reference: patent publication US6909014B2, “Intermediates for the synthesis of ether compounds” (Esperion Therapeutics, Inc., priority 1999, dated 2005)

Key:
[1] = system: chow fed male Sprague-Dawley rats; test: Serum lipids, lipoproteins, apolipoproteins and weight gain in chow fed male Sprague-Dawley rats after seven daily oral doses; format: in vivo, rat; settings: 100 mg/kg, seven days, vs vehicle
Procedure: Illustrative compounds of the invention were administered daily at a dose of 100 mg/kg to chow fed male Sprague-Dawley rats for seven days in the morning by oral gavage in 1.5% carboxymethylcellulose/0.2% Tween-20 (dosing vehicle). Animals were weighed daily. Animals were allowed free access to rodent chow and water throughout the study. After the seventh dose, animals were sacrificed in the evening and blood serum was assayed for lipoprotein cholesterol profiles, serum triglycerides, total cholesterol VLDL, LDL, and HDL cholesterol, and the ratio of HDL cholesterol to that of VLDL plus LDL cholesterol, apolipoproteins A-I, C-II, C-III, and E by immunoelectrophoresis, and percent weight gain.
The five compounds were tested in two separate experiments. In each experiment, the experimental data were normalized against a control group of rats which received the dosing vehicle alone.

female obese Zucker rats = test: Experiment A: serum lipids, glucose, non-esterified fatty acids and weight gain in obese female Zucker rats, seven days; format: in vivo, rat; settings: Compound A 86 mg/kg, one week
Procedure: Dosing vehicle, Compound A (86 mg/kg of body weight) or troglitazone (120 mg/kg of body weight) was administered to eight week old female obese Zucker rats daily for seven days in the morning by oral gavage in 1.5% carboxymethylcellulose/0.2% Tween-20. Troglitazone was obtained commercially. Finely crushed tablets were suspended in vehicle for dosing. Orbital blood samples were obtained following a six-hour fast prior to the initial dose and also following the seventh dose.
Blood serum was assayed for total cholesterol and triglycerides (FIG. 5), lipoprotein cholesterol profiles (FIG. 6), VLDL plus LDL cholesterol combined (also referred to as apo B containing lipoprotein cholesterol or non-HDL cholesterol), HDL cholesterol, and the ratio of HDL cholesterol to that of VLDL plus LDL cholesterol (FIG. 7), serum glucose, and non-esterified fatty acids (FIG. 8), and percent weight gain (FIG. 9). […] In particular, Compound A caused a marked elevation in HDL cholesterol after one week of treatment. Using the serum total cholesterol values (FIG. 5A) and the lipoprotein cholesterol distribution (FIG. 6), the amount of cholesterol associated with non-HDL (i.e., VLDL plus LDL) and HDL were determined (FIG. 7). […] In contrast, troglitazone reduced non-HDL and HDL cholesterol by 67% and 4%, respectively.

[2] = system: LDL receptor deficient mice; test: Lipoprotein cholesterol profile in LDL receptor-deficient mice; format: in vivo; settings: 300 mg/kg/day, one week; 4 chow-fed female mice (FIG. 17)
Excerpt: The effect of Compound A on LDL levels in a murine model of homozygous familial hypercholesterolemia (Ishibashi et al., 1993, J. Clin. Invest. 92:883-893; Ishibashi et al., 1994, J. Clin. Invest. 93:1885-1893) was studied. LDL receptor-deficient mice have elevated LDL cholesterol relative to wild type mice when fed a chow diet. When fed cholesterol-enriched diets, these mice develop atherosclerosis.

[3] = system: chow fed obese female Zucker rats; test: Experiments B, C, D, E: serum lipids, glucose, insulin, body and liver weight in obese female Zucker rats, 14 days; format: in vivo, rat
Procedure: In a number of different experiments, illustrative compounds of the invention and troglitazone were administered daily at various doses to 10-week old chow fed obese female Zucker rats for 14 days in the morning by oral gavage in 1.5% carboxymethylcellulose/0.2% Tween-20 (dosing vehicle). Animals were weighed daily. Animals were allowed free access to rodent chow and water throughout the study. Blood glucose was determined after a 6-hour fast in the afternoon without anesthesia from a tail vein. Serum was also prepared from a blood sample subsequently obtained from the orbital venous plexus (with O2/CO2 anesthesia) prior to and after one week treatment and used lipid and insulin determinations. At two weeks, blood glucose was again determined after a 6-hour fast without anesthesia from a tail vein. Soon thereafter, animals were sacrificed by CO2 inhalation in the evening and cardiac blood serum was collected and assessed for various lipids and insulin. Body weight was determined daily prior to dosing and at the time of euthanasia.

[4] = system: hepatocytes isolated from a male Sprague-Dawley rat; test: Synthesis of non-saponified and saponified lipids (14C-acetate incorporation) in hepatocytes; format: cell-based; settings: 100 μM, 14C-acetate labeling 2 hr (FIG. 18)
Procedure: A male Sprague-Dawley rat was anesthetized by administration of sodium pentobarbitol by intraparitoneal injection at 50 mg/kg. In situ perfusion of the liver was performed as follows. […] To digest the liver, DSC solution (6.7 mM KCl, 143 mM NaCl, 9.2 mM Na HEPES, 5 mM CaCl2-2H2O, 1.7 mM Fructose, 0.029 mM Phenol red, 0.2% BSA, 100 U/ml collagenase Type I, 93 U/ml Hyaluronidase, 160 BAEE/ml trypsin inhibitor, pH 7.5) was perfused through the liver at a flow rate of 30 ml/min for 6 minutes at a temperature of 37° C. After digestion, cells were dispersed in a solution of DMEM-(DMEM containing 2 mM GlutMax-1, 0.2% BSA, 5% FBS, 12 nM insulin, 1.2 μM hydrocortisone) to stop the digestion process. The crude cell suspension was filtered through three layers of stainless steel mesh with pore sizes of 250, 106, and 75 μm respectively. Filtered cells were centrifuged at 50×g for two minutes and the supernatant discarded. The resulting cell pellet was resuspended in DMEM and centrifuged again. This final cell pellet was resuspended in DMEM+HS solution (DMEM containing 2 mM GlutMax-1, 20 nM delta-aminolevulinic acid, 17.4 mM MEM non-essential amino acids, 20% FBS, 12 nM insulin, 1.2 μM hydrocortisone) and plated to form monolayer cultures at a density of 100×10^3 cells/cm^2 on collagen coated culture dishes. […]

Q: CC(C)(CO)CCCCOCCCCC(C)(C)CO [Compound A, 6-(6-hydroxy-5,5-dimethylhexyloxy)-2,2-dimethyl-hexan-1-ol] was tested. Which “change in VLDL cholesterol” value [1] did it give?
A: Its value is “no change”.

Q: What about the “serum glucose (in words)” value (female obese Zucker rats) of the same compound?
A: The value was “did not induce a hypoglycemic state”.

Q: And the “HDL (in words)” value [2]?
A: The value was “HDL elevation in all treated mice”.

Q: And the “LDL cholesterol (in words)” value [2]?
A: The value was “rapid and significant reduction in LDL cholesterol”.

Q: And the “Body Weight Gain (% of Pre-treatment)” value ([3]; Experiment C, 1 mg/kg/day, 14 days, control +16.7)?
A: Its value is “+16.7 % of Pre-treatment”.

Q: And the “Triglycerides (% of Pre-treatment)” value ([3]; Experiment C, 1 mg/kg/day, 14 days, control −11.2)?
A: Its value is −8.8 % of Pre-treatment.

Q: And the “Body Weight Gain (% of Pre-treatment)” value ([3]; Experiment C, 3 mg/kg/day, 14 days, control +16.7)?
A: The value was “+17.5 % of Pre-treatment”.

Q: And the “Triglycerides (% of Pre-treatment)” value ([3]; Experiment C, 3 mg/kg/day, 14 days, control −11.2)?
A: Its value is −24.6 % of Pre-treatment.

Q: What about the “HDL-Cholesterol (% of Pretreatment)” value ([3]; Experiment C, 3 mg/kg/day, 14 days, control −29.8) of the same compound?
A: The value was −3.7 % of Pretreatment.

Q: And the “Body Weight Gain (% of Pre-treatment)” value ([3]; Experiment C, 10 mg/kg/day, 14 days, control +16.7)?
A: The value was “+10.7 % of Pre-treatment”.

Q: What about the “Triglycerides (% of Pre-treatment)” value ([3]; Experiment C, 10 mg/kg/day, 14 days, control −11.2) of the same compound?
A: The value was −50.9 % of Pre-treatment.

Q: What about the “Body Weight Gain (% of Pre-treatment)” value ([3]; Experiment C, 30 mg/kg/day, 14 days, control +16.7) of the same compound?
A: The value was “+11.3 % of Pre-treatment”.

Q: And the “Triglycerides (% of Pre-treatment)” value ([3]; Experiment C, 30 mg/kg/day, 14 days, control −11.2)?
A: The value was −42.0 % of Pre-treatment.

Q: And the “Triglycerides (% of Pre-treatment)” value ([3]; Experiment C, 100 mg/kg/day, 14 days, control −11.2)?
A: Its value is −57.0 % of Pre-treatment.

Q: And the “glucose to insulin ratio (in words)” value ([3]; Experiment C, Compound A 100 mg/kg (FIG. 14))?
A: Its value is “reduced”.

Q: What about the “blood glucose (in words)” value ([3]; Experiment C, Compound A 100 mg/kg, troglitazone 40 mg/kg, fasted rats (FIG. 12)) of the same compound?
A: Its value is “tendency to lower blood glucose”.

Q: And the “reduction of serum triglycerides (in words)” value ([3]; Experiment C, Compound A 1-100 mg/kg, troglitazone 12, 40, 120 mg/kg (FIG. 10))?
A: Its value is “reduced serum triglyceride levels at all doses”.

Q: What about the “glucose to insulin ratio (in words)” value ([3]; Experiment C, Compound A 1 and 3 mg/kg, two weeks (FIG. 14)) of the same compound?
A: Its value is “declined by approximately ⅓ to ½”.

Q: And the “weekly percent weight gain (in words)” value ([3]; Experiment C, Compound A 10, 30 and 100 mg/kg, after one and two weeks (FIG. 15))?
A: Its value is “markedly reduced”.

Q: What about the “glucose to insulin ratio (in words)” value ([3]; Experiment C, Compound A 10 and 30 mg/kg (FIG. 14)) of the same compound?
A: The value was “sustained at pretreatment levels”.

Q: And the “serum insulin (in words)” value ([3]; Experiment C, higher Compound A doses (FIG. 13))?
A: Its value is “sharp rise in serum insulin was largely curtailed or minimized”.

Q: What about the “Triglycerides (% of Pre-treatment)” value ([3]; Experiment D, 10 mg/kg/day, 14 days, control +1.6) of the same compound?
A: The value was −11.1 % of Pre-treatment.

Q: And the “Body Weight Gain (% of Pre-treatment)” value ([3]; Experiment D, 10 mg/kg/day, 14 days, control +10.6)?
A: The value was “+2.2 % of Pre-treatment”.

Q: What about the “Triglycerides (% of Pre-treatment)” value ([3]; Experiment D, 100 mg/kg/day, 14 days, control +1.6) of the same compound?
A: The value was −62.9 % of Pre-treatment.

Q: And the “Body Weight Gain (% of Pre-treatment)” value ([3]; Experiment D, 100 mg/kg/day, 14 days, control +10.6)?
A: Its value is “+4.5 % of Pre-treatment”.

Q: And the “Non HDL-Cholesterol (% of Pretreatment)” value ([3]; Experiment D, 100 mg/kg/day, 14 days, control +15.2)?
A: The value was “+7.5 % of Pretreatment”.

Q: And the “Triglycerides (% of Pre-treatment)” value ([3]; Experiment E, 100 mg/kg/day, 14 days, control +12.0)?
A: Its value is −43.2 % of Pre-treatment.

Q: What about the “Body Weight Gain (% of Pre-treatment)” value ([3]; Experiment E, 100 mg/kg/day, 14 days, control +21.9) of the same compound?
A: Its value is “+19.1 % of Pre-treatment”.

Q: What about the “Non HDL-Cholesterol (% of Pretreatment)” value ([3]; Experiment E, 100 mg/kg/day, 14 days, control −13.1) of the same compound?
A: The value was “+7.2 % of Pretreatment”.

Q: What does the source list for CC(C)(CCCCOCCCCC(C)(C)OP(=O)(O)O)OP(=O)([O-])[O-].[Na+].[Na+] [Compound B, phosphoric acid mono-(1,1-dimethyl-5-(5-methyl-5-phosphonooxy-hexyloxy)-pentyl) ester sodium salt]?
A: Body Weight Gain (% of Pre-treatment) ([3]; Experiment B, 100 mg/kg/day, 14 days, control +10.7): +12.0 % of Pre-treatment; Triglycerides (% of Pre-treatment) ([3]; Experiment B, 100 mg/kg/day, 14 days, control −31.9): +24.6 % of Pre-treatment

Q: Which “rate of saponified fatty acid synthesis (in words)” value [4] does the source give for CC(C)(CCCOCCCC(C)(C)OP(=O)(OCc1ccccc1)OCc1ccccc1)OP(=O)(OCc1ccccc1)OCc1ccccc1 [Compound E, phosphoric acid dibenzyl ester 4-(4-(bis-benzyloxy-phosphoryloxy)-4-methyl-pentyloxy)-1,1-dimethyl-butyl ester] here?
A: The value was “reduced the rates of saponified fatty acid synthesis”.

Q: Which “rate of saponified fatty acid synthesis (in words)” value [4] does the source give for CC(C)(O)CCCCOCCCCC(C)(C)O [Compound F, 6-(5-hydroxy-5-methyl-hexyloxy)-2-methyl-hexan-2-ol] here?
A: The value was “reduced the rates of saponified fatty acid synthesis”.
